Assay results published in patent US9994547B2, “Heteroarylamide inhibitors of TBK1” (Takeda Pharmaceutical Company Limited, priority 2014, dated 2018).

These compounds were tested against Full length human TBK1 (Homo sapiens (Human), UniProt Q9UHD2) (assay: Inhibition of TBK1 Enzyme (Example A)). Settings: -log(IC50), IC50 molar; 3 nM TBK1, 25 μM ATP, 60 min RT.
Chain of Full length human TBK1 (Q9UHD2 whole entry): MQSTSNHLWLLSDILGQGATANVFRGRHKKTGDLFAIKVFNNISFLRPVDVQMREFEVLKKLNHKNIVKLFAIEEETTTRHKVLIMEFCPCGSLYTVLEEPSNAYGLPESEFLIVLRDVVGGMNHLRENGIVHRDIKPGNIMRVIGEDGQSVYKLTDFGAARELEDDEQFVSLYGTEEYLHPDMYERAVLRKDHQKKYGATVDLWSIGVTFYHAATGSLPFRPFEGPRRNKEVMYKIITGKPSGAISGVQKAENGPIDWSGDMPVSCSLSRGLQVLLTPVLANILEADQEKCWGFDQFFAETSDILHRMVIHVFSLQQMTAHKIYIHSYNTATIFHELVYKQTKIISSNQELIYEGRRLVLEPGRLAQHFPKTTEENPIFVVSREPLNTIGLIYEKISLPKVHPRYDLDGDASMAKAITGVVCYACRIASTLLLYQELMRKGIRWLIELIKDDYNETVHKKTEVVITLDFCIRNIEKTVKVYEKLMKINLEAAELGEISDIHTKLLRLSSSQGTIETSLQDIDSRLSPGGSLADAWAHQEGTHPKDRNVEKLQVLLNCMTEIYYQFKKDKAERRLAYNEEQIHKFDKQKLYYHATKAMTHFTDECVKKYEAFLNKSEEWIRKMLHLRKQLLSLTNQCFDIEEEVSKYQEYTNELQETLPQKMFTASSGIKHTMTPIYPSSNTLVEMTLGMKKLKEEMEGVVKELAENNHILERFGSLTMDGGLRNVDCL
Format: biochemical
Method: Full length human TBK1 with an N-terminal His-tag was cloned into the pFastBacl vector and was transfected into Sf9 cells. 72 hours later the virus was harvested and amplified through two additional rounds of infections. Then 400 mL of the resulting virus stock was used to infect 10 L of Sf9 cells at a density of 2×10^6 cells/mL. Cell pellets were harvested 48 hours post infection and were lysed by freeze-thaw, homogenization and sonication in binding buffer (25 mM Tris pH7.6, 1 M NaCl, 10 mM imidazole, 0.5 mM TCEP) plus 0.1% Triton X-100 and complete protease inhibitor cocktail. The lysate was spun and the supernatant was purified with a HisTrap FF crude and a Superdex 200 pg column.
TBK1 inhibition is determined using a 384 well plate format in buffer containing 20 mM Hepes, pH 7.4, 10 mM MgCl2, 1 mM EDTA, 0.01% Brij-L23, 1 mM DTT. Each test compound is prepared in DMSO using 2.5-fold serial dilutions for 11 data points, which are added to the buffer so that each dilution contains 1% DMSO. To each well is added 2 μL of 1 μM 5FAM-DRHDSGLDSMKDE-NH2 (in buffer), 2 μL of diluted test compound (1% DMSO in buffer), and 5 μL of 3 nM TBK1 and 25 μM ATP (in buffer). The reaction mixture is incubated at RT for 60 min, and quenched by adding 20 mM Hepes, pH 7.4, 10 mM MgCl2, 1 mM EDTA, 0.01% Brij-L23, 1 mM DTT+25 mM EDTA. To quantify the fluorescent-labeled substrate and product following reaction, the test plate is loaded on a Caliper LC-3000, which measures percent of conversion by microfluidic-based separation. Corresponding IC50 values are calculated by non-linear curve fitting of the compound concentrations and percent of inhibition to the standard IC50 equation and reported as pIC50, i.e., −log(IC50), where IC50 is the molar concentration.
In the case of `C[C@@H](Nc1cc(-c2cnc(NC(=O)C3CC3)cn2)ccc1C#N)C(=O)N(C)C` [Example 2, (R)-N-(5-(4-cyano-3-((1-(dimethylamino)-1-oxopropan-2-yl)amino)phenyl)pyrazin-2-yl)cyclopropanecarboxamide], the “TBK1 Inhibition (pIC50)” value was 7.1. For `CC(Nc1cc(-c2cnc(NC(=O)C3CC3)cn2)ccc1C#N)C(=O)N(C)C` (centres unmarked) [Example 3, N-(5-(4-cyano-3-((1-(dimethylamino)-1-oxopropan-2-yl)amino)phenyl)pyrazin-2-yl)cyclopropanecarboxamide], the “TBK1 Inhibition (pIC50)” value was 7.9. `CC1CC1C(=O)Nc1cnc(-c2ccc(C#N)c(NCC(=O)N(C)C)c2)cn1` (centres unmarked) [Example 4, N-(5-(4-cyano-3-((2-(dimethylamino)-2-oxoethyl)amino)phenyl)pyrazin-2-yl)-2-methylcyclopropanecarboxamide] was tested, and the “TBK1 Inhibition (pIC50)” value was 7.1. `CC(C)C(Nc1cc(-c2cnc(NC(=O)C3CC3)cn2)ccc1C#N)C(=O)N(C)C` (centres unmarked) [Example 5, N-(5-(4-cyano-3-((1-(dimethylamino)-3-methyl-1-oxobutan-2-yl)amino)phenyl)pyrazin-2-yl)cyclopropanecarboxamide] was tested, and the “TBK1 Inhibition (pIC50)” value was 7.3. With `CCC(Nc1cc(-c2cnc(NC(=O)C3CC3)cn2)ccc1C#N)C(=O)N(C)C` (centres unmarked) [Example 6, N-(5-(4-cyano-3-((1-(dimethylamino)-1-oxobutan-2-yl)amino)phenyl)pyrazin-2-yl)cyclopropanecarboxamide] the “TBK1 Inhibition (pIC50)” value was 8.1. With `COCC[C@H](Nc1cc(-c2cnc(NC(=O)C3CC3)cn2)ccc1C#N)C(=O)N(C)C` [Example 7, (S)-N-(5-(4-cyano-3-((1-(dimethylamino)-4-methoxy-1-oxobutan-2-yl)amino)phenyl)pyrazin-2-yl)cyclopropanecarboxamide] the “TBK1 Inhibition (pIC50)” value was 8.2. With `CN(C)C(=O)C(CC(F)F)Nc1cc(-c2cnc(NC(=O)C3CC3)cn2)ccc1C#N` (centres unmarked) [Example 8, N-(5-(4-cyano-3-((1-(dimethylamino)-4,4-difluoro-1-oxobutan-2-yl)amino)phenyl)pyrazin-2-yl)cyclopropanecarboxamide] the “TBK1 Inhibition (pIC50)” value was 8.1. In the case of `C[C@H](Nc1cc(-c2cnc(NC(=O)C3CC3)cn2)ccc1C#N)C(=O)N1CCC1` [Example 9, (S)-N-(5-(3-((1-(azetidin-1-yl)-1-oxopropan-2-yl)amino)-4-cyanophenyl)pyrazin-2-yl)cyclopropanecarboxamide], the “TBK1 Inhibition (pIC50)” value was 6.7. With `C[C@H](Nc1cc(-c2cnc(NC(=O)C3CC3)cn2)ccc1C#N)C(=O)N1CCCC1` [Example 10, (S)-N-(5-(4-cyano-3-((1-oxo-1-(pyrrolidin-1-yl)propan-2-yl)amino)phenyl)pyrazin-2-yl)cyclopropanecarboxamide] the “TBK1 Inhibition (pIC50)” value was 7.3. `C[C@H](Nc1cc(-c2cnc(NC(=O)C3CC3)cn2)ccc1C#N)C(=O)N1CC(O)C1` [Example 11, (S)-N-(5-(4-cyano-3-((1-(3-hydroxyazetidin-1-yl)-1-oxopropan-2-yl)amino)phenyl)pyrazin-2-yl)cyclopropanecarboxamide] was tested, and the “TBK1 Inhibition (pIC50)” value was 6.7. For `CCN(C)C(=O)[C@H](C)Nc1cc(-c2cnc(NC(=O)C3CC3)cn2)ccc1C#N` [Example 12, (S)-N-(5-(4-cyano-3-((1-(ethyl(methyl)amino)-1-oxopropan-2-yl)amino)phenyl)pyrazin-2-yl)cyclopropanecarboxamide], the “TBK1 Inhibition (pIC50)” value was 8.0. `C[C@H](Nc1cc(-c2cnc(NC(=O)C3CC3)cn2)ccc1C#N)C(=O)NCCO` [Example 13, (S)-N-(5-(4-cyano-3-((1-((2-hydroxyethyl)amino)-1-oxopropan-2-yl)amino)phenyl)pyrazin-2-yl)cyclopropanecarboxamide] was tested, and the “TBK1 Inhibition (pIC50)” value was 6.3. With `CC(C)NC(=O)[C@H](C)Nc1cc(-c2cnc(NC(=O)C3CC3)cn2)ccc1C#N` [Example 14, (S)-N-(5-(4-cyano-3-((1-(isopropylamino)-1-oxopropan-2-yl)amino)phenyl)pyrazin-2-yl)cyclopropanecarboxamide] the “TBK1 Inhibition (pIC50)” value was 6.9. In the case of `COCCNC(=O)[C@H](C)Nc1cc(-c2cnc(NC(=O)C3CC3)cn2)ccc1C#N` [Example 15, (S)-N-(5-(4-cyano-3-((1-((2-methoxyethyl)amino)-1-oxopropan-2-yl)amino)phenyl)pyrazin-2-yl)cyclopropanecarboxamide], the “TBK1 Inhibition (pIC50)” value was 5.8. In the case of `COC1CN(C(=O)[C@H](C)Nc2cc(-c3cnc(NC(=O)C4CC4)cn3)ccc2C#N)C1` [Example 16, (S)-N-(5-(4-cyano-3-((1-(3-methoxyazetidin-1-yl)-1-oxopropan-2-yl)amino)phenyl)pyrazin-2-yl)cyclopropanecarboxamide], the “TBK1 Inhibition (pIC50)” value was 6.3. With `COCCN(C)C(=O)[C@H](C)Nc1cc(-c2cnc(NC(=O)C3CC3)cn2)ccc1C#N` [Example 17, (S)-N-(5-(4-cyano-3-((1-((2-methoxyethyl)(methyl)amino)-1-oxopropan-2-yl)amino)phenyl)pyrazin-2-yl)cyclopropanecarboxamide] the “TBK1 Inhibition (pIC50)” value was 7.1. `CN(C)C(=O)C(CO)Nc1cc(-c2cnc(NC(=O)C3CC3)cn2)ccc1C#N` (centres unmarked) [Example 18, N-(5-(4-cyano-3-((1-(dimethylamino)-3-hydroxy-1-oxopropan-2-yl)amino)phenyl)pyrazin-2-yl)cyclopropanecarboxamide] was tested, and the “TBK1 Inhibition (pIC50)” value was 7.5. With `C[C@H](Nc1cc(-c2cnc(NC(=O)C3CC3)cn2)ccc1C#N)C(=O)N(C)CCO` [Example 19, (S)-N-(5-(4-cyano-3-((1-((2-hydroxyethyl)(methyl)amino)-1-oxopropan-2-yl)amino)phenyl)pyrazin-2-yl)cyclopropanecarboxamide] the “TBK1 Inhibition (pIC50)” value was 7.7. With `CCN(C)C(=O)CNc1cc(-c2cnc(NC(=O)C3CC3)cn2)ccc1C#N` [Example 20, N-(5-(4-cyano-3-((2-(ethyl(methyl)amino)-2-oxoethyl)amino)phenyl)pyrazin-2-yl)cyclopropanecarboxamide] the “TBK1 Inhibition (pIC50)” value was 7.4. With `N#Cc1ccc(-c2cnc(NC(=O)C3CC3)cn2)cc1NCC(=O)N1CCC1` [Example 21, N-(5-(3-((2-(azetidin-1-yl)-2-oxoethyl)amino)-4-cyanophenyl)pyrazin-2-yl)cyclopropanecarboxamide] the “TBK1 Inhibition (pIC50)” value was 6.6. For `COC1CN(C(=O)CNc2cc(-c3cnc(NC(=O)C4CC4)cn3)ccc2C#N)C1` [Example 22, N-(5-(4-cyano-3-((2-(3-methoxyazetidin-1-yl)-2-oxoethyl)amino)phenyl)pyrazin-2-yl)cyclopropanecarboxamide], the “TBK1 Inhibition (pIC50)” value was 6.0. In the case of `CC[C@H](Nc1cc(-c2cnc(NC(=O)C3CC3)cn2)ccc1C#N)C(=O)N(C)C` [Example 23, (S)-N-(5-(4-cyano-3-((1-(dimethylamino)-1-oxobutan-2-yl)amino)phenyl)pyrazin-2-yl)cyclopropanecarboxamide], the “TBK1 Inhibition (pIC50)” value was 7.7. With `N#Cc1ccc(-c2cnc(NC(=O)C3CC3)cn2)cc1NCC(=O)N1CC(F)(F)C1` [Example 24, N-(5-(4-cyano-3-((2-(3,3-difluoroazetidin-1-yl)-2-oxoethyl)amino)phenyl)pyrazin-2-yl)cyclopropanecarboxamide] the “TBK1 Inhibition (pIC50)” value was 6.8. `CN(C(=O)CNc1cc(-c2cnc(NC(=O)C3CC3)cn2)ccc1C#N)C1CC1` [Example 25, N-(5-(4-cyano-3-((2-(cyclopropyl(methyl)amino)-2-oxoethyl)amino)phenyl)pyrazin-2-yl)cyclopropanecarboxamide] was tested, and the “TBK1 Inhibition (pIC50)” value was 7.4. In the case of `CC[C@@H](Nc1cc(-c2cnc(NC(=O)C3CC3)cn2)ccc1C#N)C(=O)N(C)C` [Example 26, (R)-N-(5-(4-cyano-3-((1-(dimethylamino)-1-oxobutan-2-yl)amino)phenyl)pyrazin-2-yl)cyclopropanecarboxamide], the “TBK1 Inhibition (pIC50)” value was 8.5. For `N#Cc1ccc(-c2cnc(NC(=O)C3CC3)cn2)cc1NCC(=O)N1CCC(O)C1` (centres unmarked) [Example 27, N-(5-(4-cyano-3-((2-(3-hydroxypyrrolidin-1-yl)-2-oxoethyl)amino)phenyl)pyrazin-2-yl)cyclopropanecarboxamide], the “TBK1 Inhibition (pIC50)” value was 6.9. For `CN(C)C(=O)C(CCO)Nc1cc(-c2cnc(NC(=O)C3CC3)cn2)ccc1C#N` (centres unmarked) [Example 28, N-(5-(4-cyano-3-((1-(dimethylamino)-4-hydroxy-1-oxobutan-2-yl)amino)phenyl)pyrazin-2-yl)cyclopropanecarboxamide], the “TBK1 Inhibition (pIC50)” value was 6.9. In the case of `CCC(Nc1cc(-c2cnc(NC(=O)C3CC3)cn2)ccc1C#N)C(=O)N(C)CCO` (centres unmarked) [Example 29, N-(5-(4-cyano-3-((1-((2-hydroxyethyl)(methyl)amino)-1-oxobutan-2-yl)amino)phenyl)pyrazin-2-yl)cyclopropanecarboxamide], the “TBK1 Inhibition (pIC50)” value was 7.8. With `C[C@@H](Nc1cc(-c2cnc(NC(=O)C3CC3)cn2)cnc1C#N)C(=O)N(C)C` [Example 30, (R)-N-(5-(6-cyano-5-((1-(dimethylamino)-1-oxopropan-2-yl)amino)pyridin-3-yl)pyrazin-2-yl)cyclopropanecarboxamide] the “TBK1 Inhibition (pIC50)” value was 5.8.
